Non-standard residues stand in square brackets, D forms with d. Residues, ends and D or L forms follow the SMILES beside them. *: point of attachment. FITC = O=C1OC2(c3ccc(O)cc3Oc3cc(O)ccc32)c2ccc(NC(=S)*)cc21; NOTA = O=C(O)CN1CCN(CC(=O)O)CCN(CC(=O)*)CC1; Ahx = NCCCCCC(=O)O
Experiments:
KB cells [1] = test: Confocal fluorescence microscopic imaging of FITC-CAPs; format: cell-based; conditions: 10 µM, 1 h, confocal laser scanning microscope
Method: (§1) KB and 3T3-L1 cells were cultured on 8-well chambered cover glasses (Iwaki, Tokyo, Japan) and incubated with FITC-CAPs (10 μM) for 1 h. The medium was removed and cells were washed twice with ice-cold PBS containing heparin (20 units/mL) and twice with ice-cold PBS. Subsequently, the cells were incubated with Hoechst 33342 (2.5 µg/mL) for 30 min and then washed twice with ice-cold PBS. Fluorescent images were captured using a confocal laser scanning microscope (LSM710, Carl Zeiss Inc., Jena, Germany) with excitation wavelengths of 405 nm (UV laser) for Hoechst 33342 and 488 nm (Ar laser) for FITC-CAPs.

3T3-L1 cells [2] = test: Cellular uptake of FITC-CAPs; format: cell-based, mouse; conditions: 1 μM; for Difference in FITC-CAP uptake between KB and 3T3-L1 cells (specificity for cancer cells): 2 h, ANOVA with Tukey's test
Method: (§2) Epidermoid carcinoma KB cells were provided by DS Pharma Biomedical Co., Ltd. (Suita, Japan). Mouse fibroblast-like 3T3-L1 cells were obtained from the JCRB Cell Bank (Tokyo, Japan). KB cells were cultured in Eagle’s minimal essential medium supplemented with 10% fetal bovine serum. The 3T3-L1 cells were grown in Dulbecco’s modified Eagle’s medium supplemented with 10% bovine calf serum. All media were supplemented with 100 IU/mL penicillin and 100 μg/mL streptomycin. The cells were maintained in a humidified atmosphere containing 5% CO2 at 37 °C.
(§3) Each cell line was grown to confluence in a 12-well plate and washed with PBS. FITC-CAPs (1 μM) or ^67Ga-NOTA-CAPs (1.0 kBq) (Figure S2C) in a growing medium (0.6 mL) were added to each cell and incubated at 37 °C for each time point. After incubation, the cells were washed twice with 20 units of heparin/PBS (0.5 mL) and lysed using cell lysis buffer M from Fujifilm Wako (Osaka, Japan) at 37 °C for 20 min. The radioactivity and fluorescence of the lysates was measured using a gamma counter and fluorescence microplate reader, respectively, and the protein concentration was determined using a Bradford protein assay kit (Bio-Rad, Hercules, CA, USA). Data are expressed as percentage uptake per milligram of protein (% uptake/mg protein).

KB cells [3] = test: Cellular uptake of FITC-CAPs; format: cell-based; conditions: 1 μM, 37 °C, 2 h post-incubation, heparin/PBS wash, lysate fluorescence; mean ± SEM, n = 7–13
Method: as §2, §3

3T3-L1 cells [4] = test: Confocal fluorescence microscopic imaging of FITC-CAPs; format: cell-based, mouse; conditions: 10 µM, 1 h, confocal laser scanning microscope
Method: as §1

[5] = Biodistribution in tumor-bearing mice; conditions: female, BALB/c nu/nu, mouse, iv, 10 kBq/100 uL, total radioactivity
Method: (§4) BALB/c nu/nu mice (female; 4 weeks old) were supplied by Japan SLC Inc. (Shizuoka, Japan). The mice were maintained in a room at a constant ambient temperature and a 12/12 h light/dark cycle, and they were given free access to food and water. Mice were subcutaneously injected on their right shoulders with approximately 1.0 × 10^7 KB cells. The tumors were allowed to reach 300–500 mm^3 (1‒2 weeks after inoculation) before biodistribution studies were performed.
(§5) The ^67Ga-NOTA-CAPs (10 kBq/100 μL) were intravenously injected into the mice via the tail vein. The mice were sacrificed at the designated time intervals, and the organs were dissected. The tissues were then weighed, and radioactivity was measured by automated gamma counting (n = 5).

KB tumor-bearing mice [6] = test: Biodistribution in tumor-bearing mice; conditions: 30 min after administration, KB xenograft, i.v.; mean (SD) of 4–6 mice
Method: as §4, §5

[7] = In vitro stability in mouse plasma; conditions: freshly prepared mouse plasma, 37 °C, 1 h, 10 μL tracer + 90 μL plasma, CH3CN precipitation, HPLC; mean (SEM) of three experiments
Method: The in vitro stability of ^67Ga-NOTA-CAPs in phosphate-buffered saline (PBS) and mouse plasma was analyzed according to a previously reported procedure [29, 30, 31]. In brief, each radiotracer (10 μL; 2.0–3.0 MBq) was added to PBS (90 μL) and incubated at 37 °C for 24 h or to freshly prepared mouse plasma (90 μL) and incubated at 37 °C for 1 h. […] The mouse plasma solution was added to ice-cold CH3CN (300 μL) and centrifuged at 9400 rcf for 4 min. The supernatant was filtered through a 0.22 μm membrane before HPLC analysis.

in vivo = conditions: female, BALB/c nu/nu, mouse, iv, 10 kBq/100 uL, total radioactivity
Method: as §4, §5

KB tumor-bearing mice [8] = conditions: mouse, in vivo
Method: as §4, §5

tissue uptake at 2 h ([5]; kidney) | tissue to tissue ratio at 2 h ([5]; tumor/blood) | tissue to tissue ratio at 2 h ([5]; tumor/muscle) | Tumor uptake (KB tumor-bearing mice [6]) | In vitro stability in mouse plasma, percentage of remaining intact radiotracer [7] | tissue uptake at 2 h ([5]; liver) | SMILES | Cellular localization in KB cells (KB cells [1]) | Difference in FITC-CAP uptake between KB and 3T3-L1 cells (specificity for cancer cells) (3T3-L1 cells [2]) | Cellular uptake of FITC-CAPs into KB cells (KB cells [3]) | Fluorescence signal in 3T3-L1 cells (3T3-L1 cells [4]) | Cellular uptake of FITC-CAPs into 3T3-L1 cells (3T3-L1 cells [2]; 37 °C, 2 h post-incubation, heparin/PBS wash, lysate fluorescence, mean ± SEM, n = 7–13) | tissue uptake at 2 h (in vivo) | Tumor-to-blood ratio compared among tracers (KB tumor-bearing mice [8]) | Tumor-to-muscle ratio compared among tracers (KB tumor-bearing mice [8])
– | – | – | – | – | – | CC(C)[C@H](NC(=O)[C@H](Cc1c[nH]cn1)NC(=O)[C@@H](NC(=O)[C@H](Cc1c[nH]cn1)NC(=O)[C@@H](NC(=O)[C@H](Cc1c[nH]cn1)NC(=O)[C@@H](NC(=O)[C@@H]1CCCN1C(=O)[C@H]1CCCN1C(=O)[C@@H](NC(=O)[C@H](Cc1c[nH]cn1)NC(=O)[C@@H](NC(=O)[C@H](Cc1c[nH]cn1)NC(=O)[C@@H](NC(=O)[C@H](Cc1c[nH]cn1)NC(=O)[C@@H](NC(=O)[C@H](Cc1c[nH]cn1)NC(=O)CCCCCNC(=S)Nc1ccc2c(c1)C(=O)OC21c2ccc(O)cc2Oc2cc(O)ccc21)C(C)C)C(C)C)C(C)C)C(C)C)[C@@H](C)O)C(C)C)C(C)C)C(=O)N[C@@H](Cc1c[nH]cn1)C(N)=O [FITC-HV6] ({FITC-Ahx}-HVHVHVHV[dP]PTHVHVHVH-NH2) | also accumulated in the cytoplasm and nucleus | high selectivity for cancer cells | 19.0% ± 0.94 % uptake/mg protein | low fluorescence signals | – | – | – | –
– | – | – | – | – | – | CC(C)[C@H](NC(=O)[C@H](CCCNC(=N)N)NC(=O)[C@@H](NC(=O)[C@H](CCCNC(=N)N)NC(=O)[C@@H](NC(=O)[C@H](CCCNC(=N)N)NC(=O)[C@@H](NC(=O)[C@@H]1CCCN1C(=O)[C@H]1CCCN1C(=O)[C@@H](NC(=O)[C@H](CCCNC(=N)N)NC(=O)[C@@H](NC(=O)[C@H](CCCNC(=N)N)NC(=O)[C@@H](NC(=O)[C@H](CCCNC(=N)N)NC(=O)[C@@H](NC(=O)[C@H](CCCNC(=N)N)NC(=O)CCCCCNC(=S)Nc1ccc2c(c1)C(=O)OC21c2ccc(O)cc2Oc2cc(O)ccc21)C(C)C)C(C)C)C(C)C)C(C)C)[C@@H](C)O)C(C)C)C(C)C)C(=O)N[C@@H](CCCNC(=N)N)C(N)=O [FITC-RV6] ({FITC-Ahx}-RVRVRVRV[dP]PTRVRVRVR-NH2) | also accumulated in the cytoplasm and nucleus | low specificity for cancer cells | 36.0% ± 2.63 % uptake/mg protein | strong fluorescence signals | 26.6% ± 2.18 % uptake/mg protein | – | – | –
23 %ID/g | 3.8 | 4.01 ± 2.05 | 3.18% ± 0.36 % ID/g | 23.3 (0.75) % | – | CC(C)[C@H](NC(=O)[C@H](Cc1c[nH]cn1)NC(=O)[C@@H](NC(=O)[C@H](Cc1c[nH]cn1)NC(=O)[C@@H](NC(=O)[C@H](Cc1c[nH]cn1)NC(=O)[C@@H](NC(=O)[C@@H]1CCCN1C(=O)[C@H]1CCCN1C(=O)[C@@H](NC(=O)[C@H](Cc1c[nH]cn1)NC(=O)[C@@H](NC(=O)[C@H](Cc1c[nH]cn1)NC(=O)[C@@H](NC(=O)[C@H](Cc1c[nH]cn1)NC(=O)[C@@H](NC(=O)[C@H](Cc1c[nH]cn1)NC(=O)CN1CCN(CC(=O)O)CCN(CC(=O)O)CC1)C(C)C)C(C)C)C(C)C)C(C)C)[C@@H](C)O)C(C)C)C(C)C)C(=O)N[C@@H](Cc1c[nH]cn1)C(N)=O [^67Ga-NOTA-HV6, metal not drawn] ({NOTA}-HVHVHVHV[dP]PTHVHVHVH-NH2) | – | – | – | – | – | – | – | –
26.9 %ID/g | 8 | 3.35 ± 0.64 | 4.76% ± 1.50 % ID/g | 27.4 (2.94) % | 53.8 %ID/g | CC(C)[C@H](NC(=O)[C@H](CCCNC(=N)N)NC(=O)[C@@H](NC(=O)[C@H](CCCNC(=N)N)NC(=O)[C@@H](NC(=O)[C@H](CCCNC(=N)N)NC(=O)[C@@H](NC(=O)[C@@H]1CCCN1C(=O)[C@H]1CCCN1C(=O)[C@@H](NC(=O)[C@H](CCCNC(=N)N)NC(=O)[C@@H](NC(=O)[C@H](CCCNC(=N)N)NC(=O)[C@@H](NC(=O)[C@H](CCCNC(=N)N)NC(=O)[C@@H](NC(=O)[C@H](CCCNC(=N)N)NC(=O)CN1CCN(CC(=O)O)CCN(CC(=O)O)CC1)C(C)C)C(C)C)C(C)C)C(C)C)[C@@H](C)O)C(C)C)C(C)C)C(=O)N[C@@H](CCCNC(=N)N)C(N)=O [^67Ga-NOTA-RV6, metal not drawn] ({NOTA}-RVRVRVRV[dP]PTRVRVRVR-NH2) | – | – | – | – | – | – | – | –

SMILES | tissue uptake at 2 h ([5]; kidney) | tissue to tissue ratio at 2 h ([5]; tumor/blood) | tissue to tissue ratio at 2 h ([5]; tumor/muscle) | Tumor uptake (KB tumor-bearing mice [6]) | In vitro stability in mouse plasma, percentage of remaining intact radiotracer [7] | tissue uptake at 2 h ([5]; liver) | Cellular localization in KB cells (KB cells [1]) | Difference in FITC-CAP uptake between KB and 3T3-L1 cells (specificity for cancer cells) (3T3-L1 cells [2]) | Cellular uptake of FITC-CAPs into KB cells (KB cells [3]) | Fluorescence signal in 3T3-L1 cells (3T3-L1 cells [4]) | Cellular uptake of FITC-CAPs into 3T3-L1 cells (3T3-L1 cells [2]; 37 °C, 2 h post-incubation, heparin/PBS wash, lysate fluorescence, mean ± SEM, n = 7–13) | tissue uptake at 2 h (in vivo) | Tumor-to-blood ratio compared among tracers (KB tumor-bearing mice [8]) | Tumor-to-muscle ratio compared among tracers (KB tumor-bearing mice [8])
CC(C)[C@H](NC(=O)[C@H](CCCCN)NC(=O)[C@@H](NC(=O)[C@H](CCCCN)NC(=O)[C@@H](NC(=O)[C@H](CCCCN)NC(=O)[C@@H](NC(=O)[C@@H]1CCCN1C(=O)[C@H]1CCCN1C(=O)[C@@H](NC(=O)[C@H](CCCCN)NC(=O)[C@@H](NC(=O)[C@H](CCCCN)NC(=O)[C@@H](NC(=O)[C@H](CCCCN)NC(=O)[C@@H](NC(=O)[C@H](CCCCN)NC(=O)CN1CCN(CC(=O)O)CCN(CC(=O)O)CC1)C(C)C)C(C)C)C(C)C)C(C)C)[C@@H](C)O)C(C)C)C(C)C)C(=O)N[C@@H](CCCCN)C(N)=O [^67Ga-NOTA-KV6, metal not drawn] ({NOTA}-KVKVKVKV[dP]PTKVKVKVK-NH2) | 118 %ID/g | 7.7 | 5.05 ± 1.51 | 4.46% ± 0.58 % ID/g | – | – | – | – | – | – | – | 32.6 %ID/g | significantly higher | significantly greater
